Measured values reported in patent US20210267978A1, “NANOPARTICLE FORMULATIONS OF IKE AND METHODS OF USE THEREOF” (The Trustees of Columbia University in the City of New York, priority 2018, published 2021).

Tests used:
SUDHL6 cells [1] = assay: Reduced glutathione measurement in cell culture (Fluorometric-Green); assay type: cell-based; conditions: Homo sapiens, SU-DHL-6, 24 hours, average of three experiments, read-out: IC50 of GSH depletion
Description: 2.4 million cells were incubated with DMSO, IKE, or β-mercaptoethanol (β-Me) at a density of 0.2 million cells/mL for 24 h. Cells were collected and washed with cold PBS once. Cell number was counted by Vi-Cell. Cells were resuspended in ice cold RIPA buffer (Thermo Fisher Scientific, 89900) with 100 μL/one million cells. Samples were centrifuged for 15 min at 4° C. at 17,000×g. The resulting supernatant was deproteinized using a trichloroacetic acid and sodium bicarbonate solution and kept on ice. The sample was diluted with assay buffer provided in GSH/GSSG Ratio Detection Assay Kit (Abcam, ab13881) ten-fold. Reduced glutathione (GSH) levels were determined using Fluorometric-Green provided in the kit following the manufacture's protocol. 384-well (Corning) low volume black flat bottom polystyrene non-treated microplates 1230F99 were used in this experiment.

SUDHL6 cells [2] = assay: Immunofluorescence of MDA (mAb 1F83) on cells; assay type: cell-based; conditions: 10 μM IKE for 6 hours vs DMSO
Description: SUDHL-6 cells were treated with IKE. The cells were harvested by centrifugation and washed with PBS once. The cells were resuspended in PBS, fixed by adding equal volume of 4% paraformaldehyde (PFA), and incubated at room temperature for 15 min. The cells were washed with PBS/0.1% Tween 20 (PBST) twice, resuspended in 10% goat serum (ThermoFisher 50197Z) for 1 h. The cells were incubated with mouse mAb 1F83, which specifically recognizes malondialdehyde (MDA)-lysine adduct 4-methyl-1,4-dihydropyridine-3,5-dicarbaldehyde (MDHDC) (Yamada et al. 2001, Hyvarinen et al. 2014) (1:100 dilution) overnight at 4° C. The cells were washed with PBS three times by centrifugation. The cells were incubated with goat anti-mouse IgG H&L (Alexa Fluor 647) (Abcam ab150115) (1:1000) at room temperature for 1 h. The cells were washed with PBST twice by centrifugation, then resuspended in PBS in 24-well plate with poly-lysine-(Sigma Aldrich P4832)-coated cover slips and centrifuged at 1,000×g for 10 min. […] When applicable, line-scan analysis was performed on representative confocal microscopy images using Zeiss LSM software to qualitatively visualize fluorescence overlap. The intensity above threshold of the fluorescent signal of the bound antibodies was analyzed using NIH ImageJ software. Data were expressed as fold change compared with the vehicle.

[3] = IKE efficacy study, mouse weight; assay type: in vivo, NCG mice; conditions: 14 days, starting from day 9
Description: IKE was dissolved in 5% DMSO/95% HBSS at pH 4 to create a 4 mg/mL solution. 5% DMSO/95% HBSS at pH 4 was used as vehicle 1. IKE PEG-PLGA nanoparticles and unfunctionalized PEG-PLGA nanoparticles (without IKE loading) (vehicle 2) prepared with a NanoAssemblr were dialyzed with deionized water overnight, the water was changed at least twice. Dialyzed IKE-PEG-PLGA nanoparticles and unfunctional PEG-PLGA nanoparticles were concentrated by Amicon Ultra-15 Centrifugal Filter Units to create a solution with 80 mg/mL PEG-PLGA nanoparticles. All above solutions were sterilized by filter through a 0.2 μm syringe filter.
NCG mice, 6-weeks old, were injected with 10 million SUDHLO-6 cells subcutaneously. […] Tumor volume was measured daily with electronic caliper and calculated using the formula: 0.5×length×width^2. […] Tumor volume change was analyzed in Prism using one-way ANOVA. Tumor tissues were analyzed as described in the RT-qPCR, immunofluorescence, TBARS, and lipidomics sections below.
We investigated the efficacy of IKE in vivo in male NCG mice bearing SUDHL6 subcutaneous xenografts. […] During the experimental period, mouse weight and tumor volume were measured daily to determine IKE's antitumor effect and possible toxicity. Tumor growth was calculated as the fold change relative to original tumor volume on day 0 before the first dose (FIG. 4C). […]

[4] = tested on: SUDHL6 xenograft tumor tissue; assay: TBARS measurement in mouse tumor tissue from efficacy study; assay type: in vivo, NCG mice
Description: NCG mice, 6-weeks old, were injected with 10 million SUDHLO-6 cells subcutaneously. The mice were treated after the tumor size reached 100 mm^3. Mice were separated randomly into treatment groups and dosed with 23 mg/kg IKE, 40 mg/kg IKE, 23 mg/kg IKE PEG-PLGA nanoparticles (equal to 700 mg/kg PEG-PLGA), vehicle 1 (based on volume), and vehicle 2 (700 mg/kg PEG-PLGA) once daily by IP for 14 days. Tumor volume was measured daily with electronic caliper and calculated using the formula: 0.5×length×width^2. 3 h after the final dosage, mice were euthanized with CO2 and tumor tissue was dissected, weighed, divided into 4-6 segments, frozen, and stored at −80° C. Tumor volume change was analyzed in Prism using one-way ANOVA. Tumor tissues were analyzed as described in the RT-qPCR, immunofluorescence, TBARS, and lipidomics sections below.
10-25 mg tumor tissue was placed into a 1.5 mL Eppendorf microfuge tube, and the sample was placed on dry ice until use. 20 μL/mg ice cold RIPA buffer with cocktail protease inhibitor (Roche) was added. The tumor tissue was homogenized at speed 5 for 30 sec using Bead Ruptor 4. The sample was centrifuged at 4° C. at 1,600×g for 10 min. The sample was kept on ice and the supernatant used for analysis. […] TBARS was measured using a TBARS Assay Kit (Cayman 700870) following the manufacture's protocol.

IC50 (SUDHL6 cells [1]): 34 nM
mouse weight ([3]; 23 mg/kg daily): weight loss
mouse weight ([3]; 40 mg/kg daily): weight loss
SMILES: CC(C)Oc1ccc(C(=O)Cn2ccnc2)cc1-n1c(CN2CCN(C(=O)COc3ccc(Cl)cc3)CC2)nc2ccccc2c1=O [IKE, Imidazole ketone erastin]
MDA immunofluorescence intensity increase (SUDHL6 cells [2]): 3.4 fold
MDA increase (TBARS assay, MDA-TBA adducts' fluorescence) ([4]; 23 mg/kg daily for 14 days): 1.4 fold
MDA increase (TBARS assay, MDA-TBA adducts' fluorescence) ([4]; 40 mg/kg daily for 14 days): 1.8 fold
